Data: US20250230193A1, “CYCLIC COMPOUND HAVING SELECTIVE KRAS INHIBITORY EFFECT ON HRAS AND NRAS” (CHUGAI SEIYAKU KABUSHIKI KAISHA, priority 2022, published 2025)
Where a SMILES comes first, the peptide text is derived from it. Bridges are numbered along the chain shown (N, C = ends). [ ]: non-standard residue; d: D form. The star is where a group is joined. hPhe(3-Cl-4-CF3) = N[C@@H](CCc1ccc(C(F)(F)F)c(Cl)c1)C(=O)O; NPrPhe(4-CF3) = CCCN[C@@H](Cc1ccc(C(F)(F)F)cc1)C(=O)O; NMeGly(cPent) = CN[C@H](C(=O)O)C1CCCC1; NMeD = CN[C@@H](CC(=O)O)C(=O)O; NMeL = CN[C@@H](CC(C)C)C(=O)O; Morpholide = C1CN(*)CCO1; Ac5c = NC1(C(=O)O)CCCC1; Abu = CC[C@H](N)C(=O)O; NEtG = CCNCC(=O)O; Sar = CNCC(=O)O

Tests used:
[1] = target: GDP-bound HRAS wild-type protein (Homo sapiens, UniProt P01112); experiment: Binding to HRAS by surface plasmon resonance (SPR), Single Cycle Kinetics
[2] = target: GDP-bound NRAS wild-type protein (Homo sapiens, UniProt P01111); experiment: Binding to NRAS by surface plasmon resonance (SPR), Single Cycle Kinetics
[3] = SPR, GDP-bound HRAS wild-type vs GDP-bound KRAS wild-type
[4] = SPR, GDP-bound NRAS wild-type vs GDP-bound KRAS wild-type

Sequence of GDP-bound HRAS wild-type protein (P01112 whole entry): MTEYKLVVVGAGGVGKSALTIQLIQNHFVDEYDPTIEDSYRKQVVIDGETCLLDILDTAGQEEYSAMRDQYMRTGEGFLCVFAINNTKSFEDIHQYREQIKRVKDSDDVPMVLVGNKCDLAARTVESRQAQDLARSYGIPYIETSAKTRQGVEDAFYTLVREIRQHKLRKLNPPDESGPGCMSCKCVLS
Sequence of GDP-bound NRAS wild-type protein (P01111 whole entry): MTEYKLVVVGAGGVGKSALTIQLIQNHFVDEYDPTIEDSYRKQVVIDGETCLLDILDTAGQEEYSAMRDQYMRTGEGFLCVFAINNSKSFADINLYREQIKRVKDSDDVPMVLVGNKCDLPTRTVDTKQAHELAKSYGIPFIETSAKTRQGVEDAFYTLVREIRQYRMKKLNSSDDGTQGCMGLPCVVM

CCCOC[C@H]1C(=O)N[C@@H]([C@@H](C)CC)C(=O)N(C)CC(=O)N(C)[C@H]2C/C=C\CCN(C2=O)[C@@H](Cc2ccc(C)cc2)C(=O)N(C)CC(=O)N[C@@H](CCc2ccc(C(F)(F)F)c(OC)c2)C(=O)N2C[C@@H](C)C[C@H]2C(=O)N(C)C2(CCC2)C(=O)N(C)[C@@H](C2CCCC2)C(=O)N(C)[C@H](C(=O)N(C)C)CC(=O)N1C [PP2365]
HRAS/KRAS (ratio of KD value with respect to HRAS to KD value with respect to KRAS) [1, 3]: B (a compound having 3 or more and less than 10 is denoted as B)
NRAS/KRAS (ratio of KD value with respect to NRAS to KD value with respect to KRAS) [2, 4]: A (a compound having 10 or more and less than 20 is denoted as A)

CCO[C@@H]1C[C@H]2C(=O)NC3(CCC3)C(=O)N(C)[C@@H](C3CCCC3)C(=O)N(C)[C@H](C(=O)N(C)C)CC(=O)N(C)[C@@H](CCOC)C(=O)N[C@@H]([C@@H](C)CC)C(=O)N(C)CC(=O)N(C)[C@H]3CCCCN(C3=O)[C@@H](Cc3ccc(C(F)(F)F)cc3)C(=O)N(C)CC(=O)N[C@@H](CCc3cc(F)c(C(F)(F)F)c(F)c3)C(=O)N2C1 [PP0705]
HRAS/KRAS (ratio of KD value with respect to GDP-bound HRAS wild-type protein to KD value with respect to KRAS) ([1]; KD ratio HRAS/KRAS, SPR): C (A compound having a KD ratio of 0.1 or more and less than 3 is denoted as C)
NRAS/KRAS (ratio of KD value with respect to GDP-bound NRAS wild-type protein to KD value with respect to KRAS) ([2]; KD ratio NRAS/KRAS, SPR): C (A compound having a KD ratio of 0.1 or more and less than 3 is denoted as C)

C#CC[C@H]1C(=O)N[C@@H]([C@@H](C)CC)C(=O)N(C)CC(=O)N(C)[C@H]2C/C=C\CCN(C2=O)[C@@H](Cc2ccc(C(F)(F)F)cc2)C(=O)N(C)CC(=O)N[C@@H](CCc2ccc(C(F)(F)F)c(OC)c2)C(=O)N2C[C@H](OCC)C[C@H]2C(=O)NC2(CC(C)(C)C2)C(=O)N(C)[C@@H](C2CCCC2)C(=O)N(C)[C@H](C(=O)N(C)CCC)CC(=O)N1C [PP2053]
HRAS/KRAS (ratio of KD value with respect to HRAS to KD value with respect to KRAS) [1, 3]: A (a compound having 10 or more and less than 20 is denoted as A)
NRAS/KRAS (ratio of KD value with respect to NRAS to KD value with respect to KRAS) [2, 4]: A (a compound having 10 or more and less than 20 is denoted as A)

CCCN1C(=O)CN(C)C(=O)CN(CC)C(=O)[C@H](CC)NC(=O)[C@H](CC(C)C)N(C)C(=O)C[C@@H](C(=O)N2CCOCC2)N(C)C(=O)[C@H](C2CCCC2)N(C)C(=O)C2(CCCC2)NC(=O)[C@@H]2CCCN2C(=O)[C@H](CCc2ccc(C(F)(F)F)c(Cl)c2)NC(=O)CN(C)C(=O)[C@@H]1Cc1ccc(C(F)(F)F)cc1 [PP0290] ([NMeL][Abu][NEtG][Sar][NPrPhe(4-CF3)][Sar][hPhe(3-Cl-4-CF3)]P[Ac5c][NMeGly(cPent)][NMeD]-Morpholide; lactam N-11)
HRAS/KRAS (ratio of KD for GDP-bound HRAS wild-type to KD for KRAS) ([1]; KD ratio HRAS/KRAS, SPR): C (A compound having a KD ratio of 0.1 or more and less than 3 is denoted as C)
NRAS/KRAS (ratio of KD for GDP-bound NRAS wild-type to KD for KRAS) ([2]; KD ratio NRAS/KRAS, SPR): B (a compound having 3 or more and less than 10 is denoted as B)

CCCOC[C@H]1C(=O)N[C@@H]([C@@H](C)CC)C(=O)N(C)CC(=O)N(C)[C@H]2C/C=C\CCN(C2=O)[C@@H](Cc2ccc(C(F)(F)F)cc2)C(=O)N(C)CC(=O)N[C@@H](CCc2ccc(C(F)(F)F)c(OC)c2)C(=O)N2C[C@H](OCC)C[C@H]2C(=O)NC2(CCC2)C(=O)N(C)[C@@H](C2CCCC2)C(=O)N(C)[C@H](C(=O)N(C)CC)CC(=O)N1C [PP2016]
HRAS/KRAS (ratio of KD value for HRAS to KD value for KRAS) ([1]; KD ratio, GDP-bound HRAS wild-type vs GDP-bound KRAS wild-type, SPR): A (a compound having 10 or more and less than 20 is denoted as A)
NRAS/KRAS (ratio of KD value for NRAS to KD value for KRAS) ([2]; KD ratio, GDP-bound NRAS wild-type vs GDP-bound KRAS wild-type, SPR): A (a compound having 10 or more and less than 20 is denoted as A)

CCO[C@@H]1C[C@H]2C(=O)NC3(CC(C)(C)C3)C(=O)N(C)[C@@H](C3CCCC3)C(=O)N(C)[C@H](C(=O)N(C)C)CC(=O)N(C)[C@@H](COC)C(=O)N[C@@H]([C@@H](C)CC)C(=O)N(C3CC3)CC(=O)N(C)[C@H]3C/C=C\CCN(C3=O)[C@@H](CC3CCCCC3)C(=O)N(C)CC(=O)N[C@@H](CCc3ccc(Cl)c(Cl)c3)C(=O)N2C1 [PP2563]
HRAS/KRAS (ratio of KD value with respect to GDP-bound HRAS wild-type protein to KD value with respect to KRAS) ([1]; KD ratio HRAS/KRAS, class symbols): A (a compound having 10 or more and less than 20 is denoted as A)
NRAS/KRAS (ratio of KD value with respect to GDP-bound NRAS wild-type protein to KD value with respect to KRAS) ([2]; KD ratio NRAS/KRAS, class symbols): A (a compound having 10 or more and less than 20 is denoted as A)

CCCO[C@@H]1C[C@H]2C(=O)NC3(CC(C)(C)C3)C(=O)N(C)[C@@H](C3CCCC3)C(=O)N(C)[C@H](C(=O)N3CCCC3)CC(=O)N(C)[C@H]3CCCc4ccc(cc4)C[C@@H](C(=O)N(C)CC(=O)N[C@@H](CCc4ccc(C(F)(F)F)c(OC)c4)C(=O)N2C1)N1CC/C=C\C[C@@H](C1=O)N(C)C(=O)CN(C)C(=O)[C@H]([C@@H](C)CC)NC3=O [PP3065]
HRAS/KRAS (ratio of KD value with respect to GDP-bound HRAS wild-type protein to KD value with respect to KRAS) ([1]; KD ratio HRAS/KRAS, SPR, GDP-bound wild-type proteins): B (a compound having 3 or more and less than 10 is denoted as B)
NRAS/KRAS (ratio of KD value with respect to GDP-bound NRAS wild-type protein to KD value with respect to KRAS) ([2]; KD ratio NRAS/KRAS, SPR, GDP-bound wild-type proteins): A (a compound having 10 or more and less than 20 is denoted as A)

CCO[C@@H]1C[C@H]2C(=O)NC3(CCC3)C(=O)N(C)[C@@H](C3CCCC3)C(=O)N(C)[C@H](C(=O)N3CCOCC3)CC(=O)N(C)C(C)(C)C(=O)N[C@@H]([C@@H](C)CC)C(=O)N(C)CC(=O)N(C)[C@H]3CCCCN(C3=O)[C@@H](Cc3ccc(C(F)(F)F)cc3)C(=O)N(C)CC(=O)N[C@@H](CCc3cc(F)c(C(F)(F)F)c(F)c3)C(=O)N2C1 [PP0722]
HRAS/KRAS (ratio of KD value with respect to GDP-bound HRAS wild-type protein to KD value with respect to KRAS) ([1]; KD ratio HRAS/KRAS, SPR): B (a compound having 3 or more and less than 10 is denoted as B)
NRAS/KRAS (ratio of KD value with respect to GDP-bound NRAS wild-type protein to KD value with respect to KRAS) ([2]; KD ratio NRAS/KRAS, SPR): C (A compound having a KD ratio of 0.1 or more and less than 3 is denoted as C)
